# According to EPA's ToxRefDB 2:
# Experiments:
# rat [1] = details: Sub-acute repeat dose toxicity, sprague dawley, Oral, Gavage/Intubation, dose end: 22 day, group: systemic
# rat [2] = details: Prenatal developmental toxicity study, Oral, Gavage/Intubation, dose end: 18 GD
# rat [3] = details: Subchronic oral toxicity in rodents, Gavage/Intubation, dose end: 64 day, group: systemic, systemic / in life observation / body weight / body weight + systemic / in life observation / clinical signs / motor activity + systemic / …
# dog = details: Sub-acute repeat dose toxicity; beagle; Inhalation; Whole-Body; dose end: 14 day; group: systemic; systemic / in life observation / food consumption / food consumption + systemic / pathology microscopic / nose / [other] + systemic / …
# rat [4] = details: Sub-acute repeat dose toxicity; Inhalation; Whole-Body; dose end: 14 day; group: systemic; systemic / hematology / blood clotting / blood clotting - activated partial thromboplastin time + systemic / in life observation / body …
# rabbit [5] = details: Prenatal developmental toxicity study; new zealand white; Oral; Gavage/Intubation; dose end: 19 GD; group: maternal; systemic / in life observation / body weight / body weight gain + systemic / in life observation / clinical signs / reduced activity + …
# primate [6] = details: Subchronic oral toxicity in nonrodent, Gavage/Intubation, dose end: 48 day, group: systemic
# primate [7] = details: Subchronic oral toxicity in nonrodent, Gavage/Intubation, dose end: 42 day, group: systemic, systemic / in life observation / body weight / body weight + systemic / in life observation / clinical signs / emesis + systemic / in life …
# rabbit [8] = details: Sub-acute repeat dose toxicity, Oral, Gavage/Intubation, dose end: 5 day, group: systemic
# rabbit [9] = details: Sub-acute repeat dose toxicity, new zealand white, Oral, Gavage/Intubation, dose end: 13 day
# rat [10] = details: Fertility (Segment I), sprague dawley, Oral, Gavage/Intubation, dose end: 1 generation, group: parental
# rat [11] = details: Sub-acute repeat dose toxicity, sprague dawley, Oral, Gavage/Intubation, dose end: 12 day, group: systemic
# primate [12] = details: Sub-acute repeat dose toxicity; Oral; Gavage/Intubation; dose end: 5 day; group: systemic; systemic / in life observation / clinical signs / emesis + systemic / in life observation / food consumption / food consumption
# primate [13] = details: Sub-acute repeat dose toxicity, Oral, Gavage/Intubation, dose end: 9 day, group: systemic
# rat [14] = details: Fertility (Segment I), sprague dawley, Oral, Gavage/Intubation, dose end: 1 generation, group: parental; remark: listed apart in the source
# rat [15] = details: Subchronic oral toxicity in rodents, sprague dawley, Gavage/Intubation, dose end: 42 day, group: systemic
# rat [16] = details: Prenatal developmental toxicity study, sprague dawley, Oral, Gavage/Intubation, dose end: 18 GD
# rat [17] = details: Sub-acute repeat dose toxicity, sprague dawley, Oral, Gavage/Intubation, dose end: 14 day, group: systemic
# rat [18] = details: Sub-acute repeat dose toxicity, sprague dawley, Oral, Gavage/Intubation, dose end: 4 week, group: systemic
# rabbit [19] = details: Prenatal developmental toxicity study, himalayan, Oral, Gavage/Intubation, dose end: 18 GD, group: maternal
# rat [20] = details: Prenatal developmental toxicity study, sprague dawley, Oral, Gavage/Intubation, dose end: 17 GD
# [21] = systemic / in life observation / body weight / body weight + systemic / in life observation / body weight / body weight gain + systemic / in…
# [22] = systemic / in life observation / body weight / body weight gain
# [23] = group: developmental, developmental / developmental malformation / bone / fused + developmental / developmental malformation / bone / delayed ossification + …
# [24] = group: maternal, systemic / in life observation / body weight / body weight + systemic / in life observation / body weight / body weight gain + systemic / in…
# [25] = group: maternal, systemic / in life observation / body weight / body weight gain + systemic / in life observation / food consumption / food consumption
# [26] = systemic / in life observation / clinical signs / emesis + systemic / pathology microscopic / peritoneum / atrophy
# [27] = systemic / in life observation / clinical signs / emesis + systemic / pathology microscopic / peritoneum / atrophy + systemic / in life …
# [28] = systemic / in life observation / clinical signs / abnormal feces
# [29] = group: maternal, reproductive / offspring survival early / litter viability other / litter viability
# [30] = group: systemic, systemic / in life observation / body weight / body weight + systemic / in life observation / clinical signs / inappetence
# [31] = group: systemic, systemic / in life observation / body weight / body weight + systemic / in life observation / clinical signs / inappetence + systemic / in …
# [32] = systemic / in life observation / clinical signs / abnormal respiratory sounds + systemic / in life observation / clinical signs / drooping …
# [33] = systemic / in life observation / body weight / body weight gain + systemic / in life observation / clinical signs / respiration (rales) + …
# [34] = systemic / in life observation / body weight / body weight gain + systemic / in life observation / clinical signs / salivation + systemic / …
# [35] = systemic / hematology / lymphocyte / lymphocyte
# [36] = systemic / in life observation / clinical signs / emesis + systemic / in life observation / clinical signs / salivation + systemic / …
# [37] = systemic / in life observation / body weight / body weight + systemic / in life observation / clinical signs / altered breathing rate + …
# [38] = systemic / hematology / erythrocyte (rbc) count differential / erythrocyte (rbc) + systemic / hematology / hemoglobin (hgb) / hemoglobin (…
# [39] = group: developmental, developmental / developmental malformation / eye / anophthalmia + developmental / developmental malformation / eye / microphthalmia + …
# [40] = systemic / in life observation / food consumption / food consumption
# [41] = systemic / in life observation / food consumption / food consumption + systemic / pathology gross / intestine large / dilatation + systemic…
# [42] = systemic / hematology / mean corpuscular (cell) volume (mcv) / mean corpuscular (cell) volume (mcv) + systemic / pathology microscopic / …
# [43] = systemic / in life observation / body weight / body weight gain + systemic / in life observation / food consumption / food consumption
# [44] = group: developmental, developmental / developmental malformation / general / crown-rump length + systemic / in life observation / body weight / fetal weight
# [45] = group: maternal, reproductive / reproductive performance / resorptions / resorptions + systemic / in life observation / body weight / body weight + systemic…
smiles,measurement,setting,value
FC(F)(F)c1ccc2c(c1)[C@H]1CNC[C@@H]2C1,LOAEL,rat [1]; [21],> 7 mg/kg/day
same,NOAEL,rat [1]; [21],≥ 7 mg/kg/day
same,LEL,rat [1]; [22],1 mg/kg/day
same,NEL,rat [1]; [22],< 1 mg/kg/day
same,LEL,"rat [2]; group: developmental, developmental / developmental malformation / bone / delayed ossification + developmental / developmental malformation / bone / fused + …",3 mg/kg/day
same,LOAEL,rat [2]; [23],> 7 mg/kg/day
same,NOAEL,rat [2]; [23],≥ 7 mg/kg/day
same,LOAEL,rat [2]; [24],> 7 mg/kg/day
same,NOAEL,rat [2]; [24],≥ 7 mg/kg/day
same,LEL,rat [2]; [25],1 mg/kg/day
same,NEL,rat [2]; [25],< 1 mg/kg/day
same,LEL,rat [3],3 mg/kg/day
same,LOAEL,rat [3],> 3 mg/kg/day
same,NEL,rat [3],1 mg/kg/day
same,NOAEL,rat [3],≥ 3 mg/kg/day
CN(C[C@@H](CC[N+]12CCC(C3CCCCC3)(CC1)CC2)c1ccc(Cl)c(Cl)c1)C(=O)c1cc(C(F)(F)F)cc(C(F)(F)F)c1.CS(=O)(=O)[O-],LEL,dog,2 mg/kg/day
same,LOAEL,dog,> 2 mg/kg/day
same,NEL,dog,< 2 mg/kg/day
same,NOAEL,dog,≥ 2 mg/kg/day
same,LEL,rat [4],2 mg/kg/day
same,LOAEL,rat [4],> 2 mg/kg/day
same,NEL,rat [4],< 2 mg/kg/day
same,NOAEL,rat [4],≥ 2 mg/kg/day
C[C@@H](Oc1ccc(CNC(=O)c2cccnc2Oc2ccc3c(c2)OCO3)c(F)c1)C(=O)O,LEL,rabbit [5],200 mg/kg/day
same,LOAEL,rabbit [5],> 200 mg/kg/day
same,NEL,rabbit [5],60 mg/kg/day
same,NOAEL,rabbit [5],≥ 200 mg/kg/day
same,LEL,primate [6]; [26],5 mg/kg/day
same,NEL,primate [6]; [26],< 5 mg/kg/day
same,LOAEL,primate [6]; [27],> 30 mg/kg/day
same,NOAEL,primate [6]; [27],≥ 30 mg/kg/day
same,LEL,primate [7],200 mg/kg/day
same,LOAEL,primate [7],> 1000 mg/kg/day
same,NEL,primate [7],30 mg/kg/day
same,NOAEL,primate [7],≥ 1000 mg/kg/day
same,LOAEL,rabbit [8]; [21],> 750 mg/kg/day
same,NOAEL,rabbit [8]; [21],≥ 750 mg/kg/day
same,LEL,rabbit [8]; [28],120 mg/kg/day
same,NEL,rabbit [8]; [28],< 120 mg/kg/day
same,LEL,rabbit [9]; [29],600 mg/kg/day
same,LOAEL,rabbit [9]; [29],> 600 mg/kg/day
same,NEL,rabbit [9]; [29],400 mg/kg/day
same,NOAEL,rabbit [9]; [29],≥ 600 mg/kg/day
same,LEL,rabbit [9]; [30],120 mg/kg/day
same,NEL,rabbit [9]; [30],< 120 mg/kg/day
same,LOAEL,rabbit [9]; [31],> 600 mg/kg/day
same,NOAEL,rabbit [9]; [31],≥ 600 mg/kg/day
same,LOAEL,rat [10]; [32],> 1000 mg/kg/day
same,NEL,rat [10]; [32],50 mg/kg/day
same,NOAEL,rat [10]; [32],≥ 1000 mg/kg/day
same,LEL,rat [10]; systemic / in life observation / clinical signs / reduced activity + systemic / in life observation / clinical signs / salivation,400 mg/kg/day
same,LOAEL,rat [11]; [33],> 1000 mg/kg/day
same,NOAEL,rat [11]; [33],≥ 1000 mg/kg/day
same,LEL,rat [11]; [34],400 mg/kg/day
same,NEL,rat [11]; [34],< 400 mg/kg/day
same,LEL,primate [12],30 mg/kg/day
same,LOAEL,primate [12],> 30 mg/kg/day
same,NEL,primate [12],< 30 mg/kg/day
same,NOAEL,primate [12],≥ 30 mg/kg/day
same,LEL,primate [13]; [35],100 mg/kg/day
same,NEL,primate [13]; [35],< 100 mg/kg/day
same,LOAEL,primate [13]; [36],> 1000 mg/kg/day
same,NOAEL,primate [13]; [36],≥ 1000 mg/kg/day
same,LOAEL,rat [14]; [37],> 1000 mg/kg/day
same,NEL,rat [14]; [37],50 mg/kg/day
same,NOAEL,rat [14]; [37],≥ 1000 mg/kg/day
same,LEL,rat [14]; systemic / in life observation / body weight / body weight + systemic / in life observation / clinical signs / drooping eyelids (ptosis) + …,400 mg/kg/day
same,LOAEL,rat [15]; [38],> 2000 mg/kg/day
same,NOAEL,rat [15]; [38],≥ 2000 mg/kg/day
same,NEL,rat [15]; systemic / hematology / neutrophils / neutrophils + systemic / in life observation / body weight / body weight + systemic / in life …,10 mg/kg/day
same,LEL,rat [15]; systemic / pathology microscopic / mesentery / infiltration cellular,50 mg/kg/day
same,LEL,rat [16]; [39],400 mg/kg/day
same,LOAEL,rat [16]; [39],> 1000 mg/kg/day
same,NOAEL,rat [16]; [39],≥ 1000 mg/kg/day
same,LOAEL,rat [16]; [24],> 1000 mg/kg/day
same,NEL,rat [16]; [24],120 mg/kg/day
same,NOAEL,rat [16]; [24],≥ 1000 mg/kg/day
same,LEL,"rat [16]; group: maternal, systemic / in life observation / clinical signs / salivation + systemic / in life observation / food consumption / food consumption + …",400 mg/kg/day
same,LEL,rat [17]; [40],120 mg/kg/day
same,NEL,rat [17]; systemic / in life observation / food consumption / food consumption + systemic / pathology gross / intestine large / dilatation,30 mg/kg/day
same,LOAEL,rat [17]; [41],> 750 mg/kg/day
same,NOAEL,rat [17]; [41],≥ 750 mg/kg/day
CCN(CC)C(=O)c1cc(S(=O)(=O)Cc2ccccc2)c(N2CCC(c3ccccc3)CC2)cc1N(CC)CCN(C)C [HMR1171],NEL,rat [18]; systemic / clinical chemistry / alkaline phosphatase (alp/alk) / alkaline phosphatase (alp/alk) + systemic / clinical chemistry / …,5 mg/kg/day
same,LEL,rat [18]; [42],20 mg/kg/day
same,LOAEL,rat [18]; [42],20 mg/kg/day
same,NOAEL,rat [18]; [42],5 mg/kg/day
same,LOAEL,rabbit [19]; [43],> 240 mg/kg/day
same,NEL,rabbit [19]; [43],60 mg/kg/day
same,NOAEL,rabbit [19]; [43],≥ 240 mg/kg/day
same,LEL,rabbit [19]; [40],120 mg/kg/day
same,LEL,rat [20]; [44],60 mg/kg/day
same,LOAEL,rat [20]; [44],60 mg/kg/day
same,NEL,rat [20]; [44],10 mg/kg/day
same,NOAEL,rat [20]; [44],10 mg/kg/day
same,LEL,rat [20]; [45],60 mg/kg/day
same,LOAEL,rat [20]; [45],60 mg/kg/day
same,NEL,rat [20]; [45],10 mg/kg/day
same,NOAEL,rat [20]; [45],10 mg/kg/day
